Values joined by “and” are separate entries in the source; they are usually repeats but may differ in a detail not shown here. Equal values may be shown once.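 Briefly, cells in 96-well plates were exposed to five compound concentrations for 48 h, and endpoints were estimated by linear interpolation. Abbreviation: GI50, concentration required for 50% inhibition of growth. TGI: concentration producing complete growth inhibition.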
What was measured:
Assay in all cases: NCI anticancer screen, dose series, 48 h
DLD-1 colon = system: DLD-1 colon
LXFL 529 NSCLC = system: LXFL 529 NSCLC
TK-10 renal = system: TK-10 renal
ACHN renal = system: ACHN renal
HOP-18 NSCLC = system: HOP-18 NSCLC
DMS 114 small cell lung = system: DMS 114 small cell lung
RXF-631 renal = system: RXF-631 renal
DMS 273 small cell lung = system: DMS 273 small cell lung
KM20L2 colon = system: KM20L2 colon
COLO 205 colon = system: COLO 205 colon
SNB-78 CNS = system: SNB-78 CNS
HT29 colon = system: HT29 colon
M19-MEL melanoma = system: M19-MEL melanoma
HOP-92 NSCLC = system: HOP-92 NSCLC
MDA-MB-435 = system: MDA-MB-435
DU-145 prostate = system: DU-145 prostate

SMILES | TGI (DLD-1 colon) | TGI (LXFL 529 NSCLC) | TGI (TK-10 renal) | TGI (ACHN renal) | TGI (HOP-18 NSCLC) | TGI (DMS 114 small cell lung) | TGI (RXF-631 renal) | TGI (DMS 273 small cell lung) | TGI (KM20L2 colon) | TGI (COLO 205 colon) | TGI (SNB-78 CNS) | TGI (HT29 colon) | TGI (M19-MEL melanoma) | TGI (HOP-92 NSCLC) | TGI (MDA-MB-435) | TGI (DU-145 prostate) | GI50 (DLD-1 colon) | GI50 (KM20L2 colon) | GI50 (HT29 colon)
CCc1cccc(C(C)C)c1NC(=O)/C(=N\NC(N)=O)C(C(=O)OC)c1cnc2ccccc2n1 (stereo not drawn) | > 100 µM | > 100 µM | > 100 µM | > 100 µM | 98.2 µM | 54.2 µM | > 100 µM | > 100 µM | > 100 µM | 49.6 µM | > 100 µM | > 100 µM | 32.4 µM |  |  |  |  |  | 
N#CC(NNC(=O)Cc1ccccc1)c1ccc([N+](=O)[O-])cc1 (stereo not drawn) | > 100 µM | > 100 µM | > 100 µM | > 100 µM | > 100 µM |  |  | > 100 µM |  | > 100 µM | > 100 µM | > 100 µM | > 100 µM | > 100 µM |  |  |  |  | 
CCOC(=O)c1c(CN2CCNCC2)nc2ccc(Cl)cc2c1-c1ccccc1 | 10.1 µM | 3.2 µM | 10.8 µM | 12.9 µM | 15.5 µM | 4.05 µM | 6.68 µM | 5.56 µM | 6.87 µM | 4.16 µM | 24.7 µM | 3.68 µM | 3.61 µM | 3.16 µM | 8.21 µM | 31.9 µM |  |  | 
O=C(CCN1CCCCC1)Nc1ccc2c(c1)C(=O)c1ccc(NC(=O)CCN3CCCCC3)cc1C2=O | 15 µM | 4.64 µM | 21.2 µM | 23.9 µM | 30.7 µM | 34.7 µM |  | 3.87 µM | 33.2 µM | 24 µM | 29.8 µM | 9.99 µM | > 100 µM | 29.2 µM | 3.25 µM | 26.9 µM |  |  | 
N=S(c1ccccc1[N+](=O)[O-])c1ccccc1[N+](=O)[O-] | 4.15 µM and 2.08 µM | 7.83 µM and 5.92 µM | 7.42 µM and 6.53 µM | 3.22 µM and 3.61 µM | 19.5 µM and 15.8 µM |  | 3.43 µM | 5.15 µM and 7.87 µM | 11.2 µM and 27.4 µM | 2.77 µM and 4.12 µM | 9.2 µM and 8.28 µM | 5.16 µM and 8.69 µM | 12.3 µM and 6.84 µM | 4.02 µM and 4.39 µM |  | 7.38 µM | 1.81 µM and 0.636 µM | 5.21 µM and 12.9 µM | 1.54 µM and 3.83 µM
Cc1cc(N(CCC#N)CCC#N)ccc1/C=C1N=C(/C=C\c2ccccc2)N(NC(=O)CC(=O)Nc2ccccc2Cl)C\1=O | > 100 µM | > 100 µM | > 100 µM | > 100 µM | > 100 µM | > 100 µM | > 100 µM |  | > 100 µM | > 100 µM |  | > 100 µM | > 100 µM | > 100 µM |  |  |  |  | 
COc1ccc(C2(CC(C)C)CCNC2)cc1OC (stereo not drawn) |  |  | > 100 µM | > 100 µM |  |  |  |  |  | > 100 µM |  | > 100 µM |  | > 100 µM | > 100 µM | > 100 µM |  |  | 
O=C(O)CCC(NC(=O)c1ccc(Oc2nc3ccccc3nc2C(=O)O)cc1)C(=O)O (stereo not drawn) |  |  | > 100 µM | > 100 µM |  |  |  |  |  | > 100 µM |  | > 100 µM |  | > 100 µM | > 100 µM | > 100 µM |  |  | 
CCC1C(NC(=O)OC)C(=O)N1[C@@H](C)c1ccccc1 (stereo partly drawn) |  |  | > 100 µM | > 100 µM |  |  |  |  |  | > 100 µM |  | > 100 µM |  | > 100 µM | > 100 µM | > 100 µM |  |  | 
CCCCCCCCCCC/C=C(/C(=O)CCCO[Si](C)(C)C(C)(C)C)C(=O)OC |  |  | > 100 µM | > 100 µM |  |  |  |  |  | > 100 µM |  | > 100 µM |  | > 100 µM | > 100 µM | > 100 µM |  |  | 
O=C(NC(CS)C(=O)O)c1c2ccccc2nc2ccccc12 (stereo not drawn) |  |  | > 100 µM | > 100 µM |  |  |  |  |  | 23.5 µM |  | > 100 µM |  | > 100 µM | 16 µM | > 100 µM |  |  | 
C[C@]12CC[C@H]3[C@@H](CC=C4C[C@@H](O)CC[C@@]43C)[C@@H]1C/C(=C\c1ccncc1)[C@@H]2O |  |  | > 100 µM | 50.5 µM |  |  |  |  |  | 24.9 µM |  | > 100 µM |  | 27.6 µM | 47.9 µM | 49.6 µM |  |  | 
Nc1nc(Cl)c(N)c(NCC2(CO)CCC(OCc3ccccc3)C2)n1 (stereo not drawn) |  |  | > 100 µM | > 100 µM |  |  |  |  |  | > 100 µM |  | > 100 µM |  | > 100 µM | > 100 µM | > 100 µM |  |  | 
